The numbers were not newly measured in US9707174B2, “Aqueous ophthalmic solution of olopatadine” (Gavis Pharmaceuticals, priority 2015, dated 2017), which cites them from elsewhere.

SMILES strings stand for the structures.

For the series the following is noted: pH about 7.0, room temperature, olopatadine by itself.

For `CN(C)CC/C=C1/c2ccccc2COc2ccc(CC(=O)O)cc21` [olopatadine], the “soluble in water up to a concentration” value is listed as “about 0.18 w/v %”.
